Assays:
rabbits = assay: Chronic toxicity, rabbits; type: in vivo, rabbit; conditions: hypodermal, 2 months
Excerpt: The chronic toxicity of the preparation was studied on three species of animals (rats, dogs, rabbits). In chronic tests on the above-mentioned animals the effect of a long-time hypodermal administration of the preparation according to the present invention on the general state and mass of animals, hemogram, cardio-vascular system, breathing central nervous system, functional state of kidneys, liver, thyroid gland was studied. […] The doses of the preparation employed in the experiments surpassed the required dose for a human being (per kilogram of bodymass) by 5-10 times.

patients = assay: Clinical study on patients with memory disorders, compared to pyracetam; type: in vivo, human
Excerpt: The preparation according to the present invention was studied in clinics on 130 patients.
As regards diagnosis and sex the patients were distributed as follows:
skull-brain traumata with memory disturbance: 75 patients (52 men and 23 women)
Alzheimer's disease: 15 patients (3 men and 12 women)
Pick's disease: 5 patients (5 men)
Senile dementia: 15 patients (4 men and 11 women)
Vascular dementia (cerabral atero-sclerosis, hypertonic disease): 20 patients (7 men and 13 women)
In the group of patients with skull-brain trauma the patient's age varied from 17 to 60 years, in the other patients--from 52 to 75 years.
In addition to clinico-psychopathological methods of investigation, all the patients were subjected to neuropsychological studies during which specific tasks were offered them to solve. In doing so, the response was assessed against a 4-points scale: 3--maximally pronounced disorder, full or substantially full incapability to deal with the task set; 2--a medium degree of manifestation of the deficiency, solving the task with the experimentator's assistance; 1--minor errors, independent correction of mistakes; 0--lack of disturbances.
The treatment course duration is 30-60 days. In the case of an acute skull-brain trauma (65 patients) the treatment started 15-20 days after the moment of trauma and lasted for 20-30 days.
It is known that the function of memory has a complex brain organization and different zones of brains take part in its regulation. During the studies a multi-faceted assessment of the memory function was carried out; there were assessed: (1) mnestic component of the environmental orientation of a patient; (2) involuntary memory for current events; (3) intentional exo-experimental memory; (4) volume and soundness of audio-speaking memory; (5) volume and soundness of visual memory; (6) operative memory; (7) memory for knowledge acquired before the disease.

[1] = Carcinogenic, mutagenic, teratogenic, embryotoxic effect

Cl.Nc1c2c(nc3c1CCC3)CCCC2.O [preparation of the invention, 9-amino-2,3,5,6,7,8-hexahydro-1H-cyclopenta(b)quinoline monohydrate hydrochloride]
chronic toxicity (rabbits): no toxic effect | therapeutic effect (patients; Alzheimer's and Pick's diseases): An essential amelioration | recovery of psychic functions (patients; acute skull-brain trauma): faster and more complete recovery of psychic functions | therapeutic effect, memory (patients; consequences of a vascular injury of brains): an improvement of memory was noted along with a higher working capacity | effect on memory parameters (patients; environmental orientation, past knowledge, involuntary, voluntary exo-experimental and operative memory): more complete and faster recovering effect | effect on the functional symmetry of the brain and activity of the dominating hemisphere (patients; experimental and clinical studies): enhanced activity of the dominating hemisphere | character of recovery (in words) (patients; patients): constructive and environmental praxis recovered most efficiently along with reading ability and memory | recovery of visual versus audio memory (in words) (patients; patients): visual memory recovered faster than the audio memory | restoration of psychic functions as compared to pyracetam (patients; patients, 5 to 30 mg a day subcutaneous, 30-60 days): faster and more complete restoration of psychic functions | carcinogenic effect [1]: neither provides a carcinogenic, mutagenic, teratogenic or embryotoxic effect | embryotoxic effect [1]: neither provides a carcinogenic, mutagenic, teratogenic or embryotoxic effect | mutagenic effect [1]: neither provides a carcinogenic, mutagenic, teratogenic or embryotoxic effect | teratogenic effect [1]: neither provides a carcinogenic, mutagenic, teratogenic or embryotoxic effect
